Experimental data: patent US7074807B2, “Compositions and methods for inducing cell death” (Georgetown University, priority 1998, dated 2006)

Columns and labels:
[1] = Apoptosis assay (annexin V-FITC/propidium iodide flow cytometry), serum-free; settings: human
Method: (§1) FIGS. (7A1–7A3), (7B1–7B2), (7C1–7C3), (7D1–7D2), (7E1–7E3), (7F1–7F2). […] Cells were grown in serum-free medium overnight in T-25 flasks and treated with tempol (10 mM) or tempo (10 mM) for various times, trypsinized, and then resuspended in 200 ul 1× binding buffer as described in experimental procedures. The cell suspension was double-stained with annexin V-FITC and propidium iodide and analyzed by flow cytometry. Background signal was determined by comparison with double-stained, single-stained, or unstained control cells. (7A1–7A3), (7C1–7C3), and (7E1–7E3) are cytograms showing a relative distribution of viable (V), apoptotic (A), and necrotic (N) cells at 2 h following tempol or tempo treatment of MDA-MB 231 cells (A), PCI-04A cells (C), and PC-3 cells (E). (7B1–7B3), (7D1–7D2), and (7F1–7F2) are time course analyses of MDA-MB 231 cells (B), PCT-04A cells (D), and PC-3 cells (F). 100,000 cells were analyzed at each time point in triplicate (B) or quadruplicate (D and F). Solid bars, 1% ethanol, striped bars, 10 mM tempol, empty bars, 10 mM tempo. […] Data shown are representative from three to four independent experiments. (7B1–7B2), Time course analysis of MDA-MB 231 cells undergoing apoptosis (annexin V-FITC staining) (7B1), or necrosis (propidium iodide staining) (7B2). Values shown are mean±s.d. of triplicate determinations per time point in each treatment category, and representative of three to four independent experiments. […] (7D1–7D2), Time course analysis of PCI-04A cells undergoing apoptosis (annexin V-FITC staining) (7D1), or necrosis (propidium iodide staining) (7D2). Values shown are mean±s.d. of quadruplicate determinations per time point in each treatment category. […] (7F1–7F2), Time course analysis of PC-3 cells undergoing apoptosis (annexin V-FITC staining) (7F1), or necrosis (propidium iodide staining) (7F2). Values shown are mean±s.d. of quadruplicate determinations per time point in each treatment category. Control/C, cells treated with 1% ethanol for 2 h.
Apoptosis Assay—ApoAlert Annexin V apoptosis detection system (Clontech Lab Inc., Palo Alto, Calif.) was used to measure the relative distribution of apoptotic and necrotic cells. Briefly, cells were seeded at a density of 1×10^6 cells per 25 cm^2 tissue culture flask in medium containing 10% FBS overnight, followed by washing twice in serum-free medium. Cells were maintained overnight in serum-free medium and exposed to tempol (10 mM) or tempo (10 mM) for various times. […] The intensity of the dye uptake by cells was detected using FACStar plus Flow Cytometer (Becton Dickerson, Lincoln Park, N.J.), and data were analyzed using Reproman True Facts software (Seattle, Wash.). […]

[2] = Apoptosis assay (annexin V-FITC/propidium iodide flow cytometry); settings: human
Method: as §1
Apoptosis Assay—ApoAlert Annexin V apoptosis detection system (Clontech Lab Inc., Palo Alto, Calif.) was used to measure the relative distribution of apoptotic and necrotic cells. Briefly, cells were seeded at a density of 1×10^6 cells per 25 cm^2 tissue culture flask in medium containing 10% FBS overnight, followed by washing twice in serum-free medium. Cells were maintained overnight in serum-free medium and exposed to tempol (10 mM) or tempo (10 mM) for various times. This was followed by rinsing twice with serum-free medium prior to trypsinization, dilution in two volumes of serum-free medium, and centrifugation at 10,000× g. The cell pellet was washed once with PBS and resuspended in 200 ul of 1× binding buffer. The cell suspension was double-labeled with fluorescein isothiocyanate (FITC)-labeled annexin V (10 ul) and propidium iodide (PI) (10 ul) according to the manufacturer's instructions. Unlabeled cells or untreated cells labeled with either FITC-annexin V or PI, or double-labeled served as internal controls for the background signal. The intensity of the dye uptake by cells was detected using FACStar plus Flow Cytometer (Becton Dickerson, Lincoln Park, N.J.), and data were analyzed using Reproman True Facts software (Seattle, Wash.). Viable cells were FITC−/PI−, apoptotic cells were FITC+/PI−, and necrotic cells were FITC+/PI+.

## CC1(C)CC(O)CC(C)(C)N1[O] [tempol, 4-hydroxy-tempo, reference compound]
[1]
  viability at 2 h, 10 mM: 95.8%
[2]
  viability at 2 h, 10 mM: 89.8%
